“Also recorded” adds a separate entry of the source.
Tested on: VSVG-GFP trafficking in BSC1 cells
Assay type: cell-based, monkey

COc1ccc(CS[C@@H]2CC(=NOCc3ccccc3)C[C@H]3Oc4c(Br)c(OCC5CC5)cc5c4[C@]32C[C@@H](CO)NC5)cc1 [secramine]
ability to block protein trafficking from the golgi apparatus to the plasma membrane: block protein trafficking from the golgi apparatus to the plasma membrane | inhibition of VSVG-GFP movement from the golgi apparatus to the plasma membrane: potent inhibitor of VSVG-GFP movement from the golgi apparatus to the plasma membrane; also recorded: Golgi to PM Blocker | inhibition of the movement of a specific cellular protein from the golgi apparatus to the plasma membrane: potent inhibitor of the movement of a specific cellular protein from the golgi apparatus to the plasma membrane

COc1ccc2c3c1O[C@H]1C[C@@H](O)C=C[C@@]31CCN(C)C2 [galanthamine, reference compound]
effect on the secretory pathway: no observable effect on the secretory pathway
